# Patent US20260242372A1, “NOVEL IMIDAZOPYRIDINE AND PYRAZOLOPYRIDINE SULFONAMIDE DERIVATIVES” (Hoffmann-La Roche Inc., priority 2022, published 2026)
# Molecular target: human GPR17 short isoform (Homo sapiens, UniProt Q13304)
# Assay: GPR17 cAMP assay (hGPR17 cAMP, TR-FRET, antagonist mode)
# Format: cell-based
# Settings: CHO-K1 cells stably expressing human GPR17 short isoform; EC80 of agonist MDL29,951; forskolin 15 μM; 30 min at room temperature
# Method: CHO-K1 cells stably expressing vector containing untagged human GPR17 short isoform (Roche) were cultured at 37° C./5% CO2 in DMEM (Dulbecco's Modified Eagle Medium): F-12 (1:1) supplemented with 10% foetal bovine serum and 400 μg/ml Geneticin.
# Changes in intracellular cyclic adenosine monophosphate (cAMP) levels were quantified using the Nano-TRF Detection Assay kit (Roche Diagnostics, Cat. No. 05214386001). This assay allows for direct cAMP quantification in a homogeneous solution. CAMP is detected based on time-resolved fluorescence energy transfer (TR-FRET) and competitive binding of ruthenylated cAMP and endogenous cAMP to an anti-cAMP monoclonal antibody labeled with AlexaFluor-700. The Ruthenium complex serves as the FRET donor and transfers energy to AlexaFluor-700. The FRET signal is inversely proportional to the CAMP concentration.
# CHO-GPR17S cells were detached with Accutase and resuspended in assay buffer consisting of Hank's Balanced Salt Solution (HBSS), 10 mM HEPES (4-(2-hydroxyethyl) piperazine-1-ethanesulfonic acid solution) and 0.1% bovine serum albumin (pH 7.4). The cells were seeded in black 384-well plates (Corning) at a density of 10′000 cells/20 μl assay buffer until the addition of compounds.
# Test antagonist compounds were serially diluted in dimethyl sulfoxide (DMSO) and spotted in 384-well plates. The compounds were then diluted in HBSS buffer supplemented with an EC80 concentration of MDL29,951 (3-(2-Carboxy-4,6-dichloroindol-3-yl) propionic acid) (GPR17 agonist) plus 3-Isobutyl-1-methylxanthine (IBMX) (0.5 mM final concentration) and added to the cells at room temperature. Forskolin (15 μM final concentration) was added 5 minutes after the test compounds and the cells were incubated at room temperature for 30 minutes. The assay was stopped by adding cAMP detection mix (containing detergents for cell lysis) for 90 minutes at room temperature.
# Cellular cAMP was measured using a Paradigm reader (Molecular Devices). The raw data was used to calculate the FRET signal based on the assay's P-factor as per cAMP kit instructions. The data was normalized to the maximal activity of a reference antagonist and dose response curves were fitted to the percent activity of the test compounds using a sigmoidal dose response model (Genedata Screener).
# Sequence of human GPR17 short isoform (Q13304 29-367): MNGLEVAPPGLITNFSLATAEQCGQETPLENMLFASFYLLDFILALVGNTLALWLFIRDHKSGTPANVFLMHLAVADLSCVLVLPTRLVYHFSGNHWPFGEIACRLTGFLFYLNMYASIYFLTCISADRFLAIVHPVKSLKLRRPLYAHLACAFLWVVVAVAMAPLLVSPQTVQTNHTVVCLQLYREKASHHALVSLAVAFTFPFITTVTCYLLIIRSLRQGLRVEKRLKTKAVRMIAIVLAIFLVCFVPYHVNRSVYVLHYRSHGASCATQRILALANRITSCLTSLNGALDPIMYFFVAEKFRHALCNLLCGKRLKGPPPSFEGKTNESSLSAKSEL
row,IC50 [nM],Compound
1,100,"COc1nc(C2CC2)c(F)cc1NS(=O)(=O)c1cnn2cc(Br)ccc12 [Example 82, 6-bromo-N-(6-cyclopropyl-5-fluoro-2-methoxy-3-pyridyl)pyrazolo[1,5-a]pyridine-3-sulfonamide]"
2,21,"COc1cc(CC#N)c(F)cc1NS(=O)(=O)c1cnc2cc(C)ccn12 [Example 20, N-[4-(cyanomethyl)-5-fluoro-2-methoxy-phenyl]-7-methyl-imidazo[1,2-a]pyridine-3-sulfonamide]"
3,112,"COc1nc(NS(=O)(=O)c2cnc3cc(C)ccn23)nc(OC)c1C [Example 54, N-(4,6-dimethoxy-5-methyl-pyrimidin-2-yl)-7-methyl-imidazo[1,2-a]pyridine-3-sulfonamide]"
4,8,"COc1nc(OCC(F)F)c(F)cc1NS(=O)(=O)c1cnc2cc(OC(F)F)ccn12 [Example 5, N-[6-(2,2-difluoroethoxy)-5-fluoro-2-methoxy-3-pyridyl]-7-(difluoromethoxy)imidazo[1,2-a]pyridine-3-sulfonamide]"
5,16,"COc1nc(OCC(F)F)c(F)cc1NS(=O)(=O)c1cnc2n1CC[C@@H](C)C2 [Example 108, (7R)—N-[6-(2,2-difluoroethoxy)-5-fluoro-2-methoxy-3-pyridyl]-7-methyl-5,6,7,8-tetrahydroimidazo[1,2-a]pyridine-3-sulfonamide]"
6,174,"COc1nc(OCC(F)F)c(F)cc1NS(=O)(=O)c1cnc2c(=O)n(C)ccn12 [Example 58, N-[6-(2,2-difluoroethoxy)-5-fluoro-2-methoxy-3-pyridyl]-8-keto-7-methyl-imidazo[1,2-a]pyrazine-3-sulfonamide]"
7,46,"COc1ccn2c(S(=O)(=O)Nc3nc(OC)c(CC#N)cc3F)cnc2c1 [Example 35, N-[5-(cyanomethyl)-3-fluoro-6-methoxy-2-pyridyl]-7-methoxy-imidazo[1,2-a]pyridine-3-sulfonamide]"
8,1030,"Cc1ccn2c(S(=O)(=O)Nc3cc(F)c(CC#N)cc3F)cnc2n1 [Example 76, N-[4-(cyanomethyl)-2,5-difluoro-phenyl]-7-methyl-imidazo[1,2-a]pyrimidine-3-sulfonamide]"
9,179,"COc1ccn2c(S(=O)(=O)Nc3cc(F)c(OCC(F)F)nc3OC)cnc2c1C#N [Example 60, 8-cyano-N-[6-(2,2-difluoroethoxy)-5-fluoro-2-methoxy-3-pyridyl]-7-methoxy-imidazo[1,2-a]pyridine-3-sulfonamide]"
10,18,"COc1nc(OCC(F)F)c(F)cc1NS(=O)(=O)c1cnc2nc(C3CC3)ccn12 [Example 16, 7-cyclopropyl-N-[6-(2,2-difluoroethoxy)-5-fluoro-2-methoxy-3-pyridyl]imidazo[1,2-a]pyrimidine-3-sulfonamide]"
11,35,"COc1nc(OCC(F)F)c(F)cc1NS(=O)(=O)c1cnc2n1CC[C@H](C)C2 [Example 109, (7S)—N-[6-(2,2-difluoroethoxy)-5-fluoro-2-methoxy-3-pyridyl]-7-methyl-5,6,7,8-tetrahydroimidazo[1,2-a]pyridine-3-sulfonamide]"
12,11,"COc1nc(NS(=O)(=O)c2cnc3cc(Br)ccn23)c(F)cc1CC(F)F [Example 10, 7-bromo-N-[5-(2,2-difluoroethyl)-3-fluoro-6-methoxy-2-pyridyl]imidazo[1,2-a]pyridine-3-sulfonamide]"
13,23,"COc1nc(NS(=O)(=O)c2cnc3cc(Cl)ccn23)c(F)cc1CC(F)F [Example 24, 7-chloro-N-[5-(2,2-difluoroethyl)-3-fluoro-6-methoxy-2-pyridyl]imidazo[1,2-a]pyridine-3-sulfonamide]"
14,132,"O=S(=O)(Nc1cc(F)c(OC(F)F)nc1OC(F)F)c1cnc2nc(C3CC3)ccn12 [Example 56, N-[2,6-bis(difluoromethoxy)-5-fluoro-3-pyridyl]-7-cyclopropyl-imidazo[1,2-a]pyrimidine-3-sulfonamide]"
15,876,"COc1ccn2c(S(=O)(=O)Nc3cc(F)c(CC#N)cc3F)cnc2n1 [Example 73, N-[4-(cyanomethyl)-2,5-difluoro-phenyl]-7-methoxy-imidazo[1,2-a]pyrimidine-3-sulfonamide]"
16,5,"COc1nc(OCC(F)F)c(F)cc1NS(=O)(=O)c1cnc2cc(Br)ccn12 [Example 1, 7-bromo-N-[6-(2,2-difluoroethoxy)-5-fluoro-2-methoxy-3-pyridyl]imidazo[1,2-a]pyridine-3-sulfonamide]"

row,IC50 [nM],Compound
1,18,"COc1ccn2c(S(=O)(=O)Nc3cc(F)c(OCC(F)F)nc3OC)cnc2c1 [Example 15, N-[6-(2,2-difluoroethoxy)-5-fluoro-2-methoxy-3-pyridyl]-7-methoxy-imidazo[1,2-a]pyridine-3-sulfonamide]"
2,897,"COc1nc(NS(=O)(=O)c2cnc3cc(Cl)ccn23)ncc1OCCF [Example 74, 7-chloro-N-[5-(2-fluoroethoxy)-4-methoxy-pyrimidin-2-yl]imidazo[1,2-a]pyridine-3-sulfonamide]"
3,407,"COc1nc(C2COC2)c(F)cc1NS(=O)(=O)c1cnc2cc(Cl)ccn12 [Example 70, 7-chloro-N-[5-fluoro-2-methoxy-6-(oxetan-3-yl)-3-pyridyl]imidazo[1,2-a]pyridine-3-sulfonamide]"
4,492,"COc1nc(OCC(F)F)c(F)cc1NS(=O)(=O)c1cnc2nc(C3COC3)ccn12 [Example 103, N-[6-(2,2-difluoroethoxy)-5-fluoro-2-methoxy-3-pyridyl]-7-(oxetan-3-yl)imidazo[1,2-a]pyrimidine-3-sulfonamide]"
5,137,"COc1c(C)ccn2c(S(=O)(=O)Nc3cc(F)c(Br)cc3F)cnc12 [Example 57, N-(4-bromo-2,5-difluoro-phenyl)-8-methoxy-7-methyl-imidazo[1,2-a]pyridine-3-sulfonamide]"
6,57,"O=S(=O)(Nc1cc(F)c(OC(F)F)nc1OC(F)F)c1cnc2cc(Cl)ccn12 [Example 38, N-[2,6-bis(difluoromethoxy)-5-fluoro-3-pyridyl]-7-chloro-imidazo[1,2-a]pyridine-3-sulfonamide]"
7,76,"COc1nc(NS(=O)(=O)c2cnc3cc(Cl)ccn23)c(F)cc1C1CC1 [Example 44, 7-chloro-N-(5-cyclopropyl-3-fluoro-6-methoxy-2-pyridyl)imidazo[1,2-a]pyridine-3-sulfonamide]"
8,45,"N#CCc1cc(F)c(NS(=O)(=O)c2cnc3cc(Br)ccn23)cc1F [Example 34, 7-bromo-N-[4-(cyanomethyl)-2,5-difluoro-phenyl]imidazo[1,2-a]pyridine-3-sulfonamide]"
9,16,"COc1nc(OCC(F)F)c(F)cc1NS(=O)(=O)c1cnc2c(OC)c(Cl)ccn12 [Example 12, 7-chloro-N-[6-(2,2-difluoroethoxy)-5-fluoro-2-methoxy-3-pyridyl]-8-methoxy-imidazo[1,2-a]pyridine-3-sulfonamide]"
10,217,"COc1nc(OCC(F)F)c(F)cc1NS(=O)(=O)c1cnc2n1CCCC2 [Example 63, N-[6-(2,2-difluoroethoxy)-5-fluoro-2-methoxy-3-pyridyl]-5,6,7,8-tetrahydroimidazo[1,2-a]pyridine-3-sulfonamide]"
11,13,"COc1nc(OC(F)F)c(F)cc1NS(=O)(=O)c1cnc2cc(C3CC3)ccn12 [Example 95, 7-cyclopropyl-N-[6-(difluoromethoxy)-5-fluoro-2-methoxy-3-pyridyl]imidazo[1,2-a]pyridine-3-sulfonamide]"
12,38,"COc1nc(OCC(F)F)c(F)cc1NS(=O)(=O)c1cnc2cc(C(F)(F)F)ccn12 [Example 31, N-[6-(2,2-difluoroethoxy)-5-fluoro-2-methoxy-3-pyridyl]-7-(trifluoromethyl)imidazo[1,2-a]pyridine-3-sulfonamide]"
13,115,"COc1nc(NS(=O)(=O)c2cnc3cc(Cl)ccn23)nc(OC)c1OCC(F)F [Example 90, 7-chloro-N-[5-(2,2-difluoroethoxy)-4,6-dimethoxy-pyrimidin-2-yl]imidazo[1,2-a]pyridine-3-sulfonamide]"
14,33,"COc1ccn2c(S(=O)(=O)Nc3cc(F)c(OC(F)F)nc3OC)cnc2c1 [Example 29, N-[6-(difluoromethoxy)-5-fluoro-2-methoxy-3-pyridyl]-7-methoxy-imidazo[1,2-a]pyridine-3-sulfonamide]"
15,49,"COc1nc(NS(=O)(=O)c2cnn3cc(Br)ccc23)c(F)cc1OCC(F)F [Example 81, 6-bromo-N-[5-(2,2-difluoroethoxy)-3-fluoro-6-methoxy-2-pyridyl]pyrazolo[1,5-a]pyridine-3-sulfonamide]"
16,9,"COc1nc(OCC(F)F)c(F)cc1NS(=O)(=O)c1cnc2cc(C3CC3)ccn12 [Example 94, 7-cyclopropyl-N-[6-(2,2-difluoroethoxy)-5-fluoro-2-methoxy-3-pyridyl]imidazo[1,2-a]pyridine-3-sulfonamide]"
